Where a name gives a salt, the structure may show the parent alone. Read-outs that look alike come from different tables or passages of the source.
Key:
[1] = test system: Aβ1-40; assay: Aβ1-40 content in conditioned medium of primary cortico-hippocampal neuron cultures from Tg2576 mice (ELISA; primary and secondary dose-response screening); assay type: cell-based, mouse; conditions: for Ab1-40 (% of ctl) / activity at 100 µM: drug 100 μM; for reduced Aβ1-40: <85% of ctl; for activity at 100 µM: Mus musculus, Neuron, 24 h, read-out: Ab1-40 (% of ctl)
Summary of the method: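 Primary cortico-hippocampal neurons from embryonic Tg2576 mice were plated at 1.0×10^5 cells per well on poly-D-lysine-coated 96-well plates in Neurobasal with 2% B27, 0.5 mM L-glutamine and 1% penicillin-streptomycin. Cultures received drug in 1% DMSO, and Aβ1-40 in the conditioned medium was measured by BioSource ELISA 24 hours after treatment, relative to vehicle controls.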

[2] = test system: Aβ1-42; assay: Aβ1-42 content in conditioned medium of primary cortico-hippocampal neuron cultures from Tg2576 mice (ELISA; primary and secondary dose-response screening); assay type: cell-based, mouse; conditions: for Ab1-42 (% of ctl) / activity at 100 µM: drug 100 μM; for reducing Aβ1-42: <85% of ctl; for activity at 100 µM: Mus musculus, Neuron, 24 h, read-out: Ab1-42 (% of ctl)
Summary of the method: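 Primary cortico-hippocampal neurons from embryonic Tg2576 mouse brain were seeded on poly-D-lysine-coated 96-well plates at 1.0×10^5 cells per well in serum-free Neurobasal medium with 2% B27, 0.5 mM L-glutamine and 1% penicillin-streptomycin. For primary screening, duplicate wells received 100 μM drug (1% DMSO final). Vehicle-treated cultures served as controls, and Aβ1-42 in conditioned medium was measured by commercial ELISA.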

[3] = test system: primary cortico-hippocampal neuron cultures; assay: MTT in primary screening
[4] = test system: primary cortico-hippocampal neuron cultures; assay: lactate dehydrogenase (LDH) activity assay in parallel neuron cultures
Procedure: For in vitro treatments drugs available from “The Spectrum Collection” in stocks of 10 mM in DMSO were applied directly to cultures to the desired concentrations (final 1% DMSO); control primary neuron cultures from Tg2576 embryos were treated with vehicle resulting in a final 1% DMSO.
Cell viability was assessed using a commercial available LDH assay kit according to the manufacture's instruction (Promega).

[5] = Primary Screening, table sorted by Aβ1-40
[6] = primary screening, Tg2576 neuron cultures, table sorted by Aβ1-42
[7] = primary screening, table sorted by Aβ1-42

| MTT (% of ctl) [3, 5] | MTT (% of ctl) [3, 7] | LDH (% of ctl) [4, 5] | LDH (% of ctl) [4, 7] | SMILES | Ab1-40 (% of ctl) [1, 5] | Ab1-40 (% of ctl) [1, 6] | Ab1-42 (% of ctl) [2, 5] | Ab1-42 (% of ctl) [2, 6] | reduced Aβ1-40 ([1]; primary screening) | reducing Aβ1-42 ([2]; primary screening) | activity at 100 µM [1, 5] [%] | activity at 100 µM [1, 6] [%] | activity at 100 µM [2, 5] [%] | activity at 100 µM [2, 6] [%] |
| --- | --- | --- | --- | --- | --- | --- | --- | --- | --- | --- | --- | --- | --- | --- |
| 96.1 % of ctl | 96.1 % of ctl | 102.2 % of ctl | 102.2 % of ctl | CCOc1ccccc1OCCN[C@H](C)Cc1ccc(OC)c(S(N)(=O)=O)c1.Cl [Tamsulosin Hydrchloride] | 106.5 % of ctl | 106.5 % of ctl | 91.8 % of ctl | 91.8 % of ctl |  |  |  |  |  |  |
| 108.6 % of ctl | 108.6 % of ctl | 135.0 % of ctl | 135.0 % of ctl | CCC(C(N)=O)c1ccccc1 (stereo not drawn) [Fenbutyramide] |  |  |  |  |  |  | 91.6 | 91.6 | 96.3 | 96.3 |
| 97.7 % of ctl | 97.7 % of ctl | 110.3 % of ctl | 110.3 % of ctl | NS(=O)(=O)c1cc2c(cc1Cl)NC(C1CC3C=CC1C3)NS2(=O)=O (stereo not drawn) [Cyclothiazide] |  |  |  |  | reduced Aβ1-40 | useful in reducing Aβ1-42 | 71.1 | 71.1 | 75 | 75 |
| 97.0 % of ctl | 97.0 % of ctl | 93.3 % of ctl | 93.3 % of ctl | O=c1oc2ccccc2c(O)c1Cc1c(O)c2ccccc2oc1=O [Dicumarol] |  |  |  |  | reduced Aβ1-40 | useful in reducing Aβ1-42 | 51.3 | 51.3 | 54 | 54 |
| 104.2 % of ctl | 104.2 % of ctl | 85.3 % of ctl | 85.3 % of ctl | CC1Cc2ccccc2N1NC(=O)c1ccc(Cl)c(S(N)(=O)=O)c1 (stereo not drawn) [Indapamide] |  |  |  |  |  |  | 107 | 107 | 91.3 | 91.3 |
| 99.8 % of ctl | 99.8 % of ctl | 106.2 % of ctl | 106.2 % of ctl | CO[C@]12C[C@@H](COC(=O)c3cncc(Br)c3)CN(C)[C@@H]1Cc1cn(C)c3cccc2c13 [Nicergoline] |  |  |  |  | reduced Aβ1-40 |  | 76.1 | 76.1 | 98.5 | 98.5 |

The next lines start with the compound.

| SMILES | MTT (% of ctl) [3, 5] | MTT (% of ctl) [3, 7] | LDH (% of ctl) [4, 5] | LDH (% of ctl) [4, 7] | Ab1-40 (% of ctl) [1, 5] | Ab1-40 (% of ctl) [1, 6] | Ab1-42 (% of ctl) [2, 5] | Ab1-42 (% of ctl) [2, 6] | reduced Aβ1-40 ([1]; primary screening) | reducing Aβ1-42 ([2]; primary screening) | activity at 100 µM [1, 5] [%] | activity at 100 µM [1, 6] [%] | activity at 100 µM [2, 5] [%] | activity at 100 µM [2, 6] [%] |
| --- | --- | --- | --- | --- | --- | --- | --- | --- | --- | --- | --- | --- | --- | --- |
| COc1ccc2c(c1OC)C(=O)O[C@H]2[C@@H]1c2cc3c(cc2CCN1C)OCO3 [1S,9R-Beta-HYDRASTINE] | 101.1 % of ctl | 101.1 % of ctl | 114.2 % of ctl | 114.2 % of ctl | 114.5 % of ctl | 114.5 % of ctl | 123.6 % of ctl | 123.6 % of ctl |  |  |  |  |  |  |
| CCOc1nc2cccc(C(=O)OC(C)OC(=O)OC3CCCCC3)c2n1Cc1ccc(-c2ccccc2-c2nn[nH]n2)cc1 (stereo not drawn) [Candesartan Cilextil] | 41.2 % of ctl | 41.2 % of ctl | 227.6 % of ctl | 227.6 % of ctl | 9.3 % of ctl | 9.3 % of ctl | 18.1 % of ctl | 18.1 % of ctl | reduced Aβ1-40 | useful in reducing Aβ1-42 |  |  |  |  |
| Cc1cc(C(C)(C)C)c(O)c(C)c1CC1=NCCN1 [Oxymetazoline Hydrochloride] | 97.3 % of ctl | 97.3 % of ctl | 97.0 % of ctl | 97.0 % of ctl |  |  |  |  | reduced Aβ1-40 | useful in reducing Aβ1-42 | 78 | 78 | 44.9 | 44.9 |
| C[C@H](CS)C(=O)N1CCC[C@H]1C(=O)O [Captopril] | 62.3 % of ctl | 62.3 % of ctl | 120.2 % of ctl | 120.2 % of ctl |  |  |  |  |  |  | 104 | 104 | 99.7 | 99.7 |
| CN1C(C)(C)CCCC1(C)C [Pempidine Tartrate] | 91.3 % of ctl | 91.3 % of ctl | 108.4 % of ctl | 108.4 % of ctl |  |  |  |  | reduced Aβ1-40 | useful in reducing Aβ1-42 | 80.9 | 80.9 | 78.6 | 78.6 |
| O=C(O)c1cccnc1 [Niacin] | 61.0 % of ctl | 61.0 % of ctl | 134.5 % of ctl | 134.5 % of ctl |  |  |  |  |  |  | 101 | 101 | 95 | 95 |
| CCOC(=O)[C@H](CCc1ccccc1)N[C@@H](C)C(=O)N1[C@H](C(=O)O)C[C@@H]2CCC[C@@H]21 [Ramipril] | 102.9 % of ctl | 102.9 % of ctl | 96.4 % of ctl | 96.4 % of ctl |  |  |  |  |  |  | 107 | 107 | 105 | 105 |
| CC(C)(Sc1cc(C(C)(C)C)c(O)c(C(C)(C)C)c1)Sc1cc(C(C)(C)C)c(O)c(C(C)(C)C)c1 [Probucol] | 94.8 % of ctl | 94.8 % of ctl | 109.3 % of ctl | 109.3 % of ctl |  |  |  |  | reduced Aβ1-40 |  | 76.8 | 76.8 | 136 | 136 |
| CCCNCC(O)COc1ccccc1C(=O)CCc1ccccc1 (stereo not drawn) [Propafenone Hydrochloride] | 95.2 % of ctl | 95.2 % of ctl | 113.7 % of ctl | 113.7 % of ctl |  |  |  |  | reduced Aβ1-40 | useful in reducing Aβ1-42 | 36.3 | 36.3 | 56.4 | 56.4 |
| COc1ccc(OC)c(C(O)CNC(=O)CN)c1 (stereo not drawn) [Midodrine Hydrochloride] | 87.8 % of ctl | 87.8 % of ctl | 105.6 % of ctl | 105.6 % of ctl |  |  |  |  |  | useful in reducing Aβ1-42 | 86 | 86 | 76.7 | 76.7 |
| CC(C)NCC(O)COc1ccc(CC(N)=O)cc1 (stereo not drawn) [Atenolol] | 97.3 % of ctl | 97.3 % of ctl | 136.8 % of ctl | 136.8 % of ctl |  |  |  |  |  |  | 90.4 | 90.4 | 94.5 | 94.5 |
| NC[C@H]1CC[C@H](C(=O)O)CC1 [Tranexamic Acid] | 96.8 % of ctl | 96.8 % of ctl | 112.8 % of ctl | 112.8 % of ctl |  |  |  |  | reduced Aβ1-40 | useful in reducing Aβ1-42 | 84.9 | 84.9 | 53.9 | 53.9 |
| CC(CCc1ccccc1)NC(C)C(O)c1ccc(O)cc1 (stereo not drawn) [Nylidrin Hydrochloride] | 79.7 % of ctl | 79.7 % of ctl | 115.6 % of ctl | 115.6 % of ctl |  |  |  |  | reduced Aβ1-40 |  | 70.5 | 70.5 | 90.4 | 90.4 |
| O=c1oc2c(O)c(O)cc3c(=O)oc4c(O)c(O)cc1c4c23 [Ellagic Acid] | 85.2 % of ctl | 85.2 % of ctl | 109.2 % of ctl | 109.2 % of ctl |  |  |  |  |  |  | 96.6 | 96.6 | 94 | 94 |
| COCCc1ccc(OCC(O)CNC(C)C)cc1 (stereo not drawn) [Metoprolol Tartrate] | 94.7 % of ctl | 94.7 % of ctl | 107.5 % of ctl | 107.5 % of ctl |  |  |  |  |  |  | 91.4 | 91.4 | 104 | 104 |
